The text below walks through data of patent US20050222260A1, “(2S)-2-amino-a-{[2-(ethanimidoylamino) ethyl]thio}butanoic acid, a nitric oxide synthase inhibitor, in stabilized pharmaceutical dosage forms” (priority 2003, published 2005).

Series [1] in a line: Compatibility with standard pharmaceutical excipients of solid oral dosage forms. The format is physicochemical. The settings on record: excipients conventionally used for solid oral dosage forms such as tablets; e.g. as compound with phosphoric acid.
The conditions of series [2]: compared with the hydrochloride salts exemplified in WO98/30537; cited from earlier work.

Each structure is given as a SMILES string.

Regarding `CC(=N)NCCSCC[C@H](N)C(=O)O` [(2S)-2-amino4-{[2-(ethanimidoylamino)ethyl]thio}butanoic acid], the “compatibility with standard pharmaceutical excipients” value in series [1] is on record as “exhibits incompatability with standard pharmaceutical excipients”.
Turning to `CC(=N)NCCSCC[C@H](N)C(=O)O.O=P(O)(O)O` [phosphate salt of (2S)-2-amino4-{[2-(ethanimidoylamino)ethyl]thio}butanoic acid], in series [2], the hygroscopicity entry is reported as “considerably less hygroscopic”.
